Key:
Format in all cases: physicochemical
[1] = Limiting solubility in phosphate buffer, measured in the presence of undissolved solid; conditions: 22°C; for Grenzlöslichkeit: pH 7,4, in the presence of undissolved solid
Solubility in acetone = conditions: solvent acetone (for the 1,5-Hydrat also other lower ketones)
[2] = Hygroscopicity / water uptake on storage
Description: So nimmt es bei Temperaturen von 20 bzw. 30°C und einer relativen Luftfeuchtigkeit von 80 % bei der Lagerung kein Wasser auf (keine Umwandlung in das 1,5-Hydrat!).

SMILES	Grenzlöslichkeit [1]	Löslichkeit in Aceton (Solubility in acetone)	Grenzlöslichkeit relative to the 1,5-Hydrat ([1]; pH 7,4, ratio versus the 1,5-Hydrat)	Hygroskopizität [2]	Wasseraufnahme bei der Lagerung ([2]; 20 or 30°C, relative humidity 80 %, storage)
COc1ccnc(C[S+]([O-])c2nc3ccc(OC(F)F)cc3[nH]2)c1OC (stereo not shown) [1,5-Hydrat, 5-Difluormethoxy-2-[(3,4-dimethoxy-2-pyridyl)methylsulfinyl]-1H-benzimidazol-Natriumsalz-1,5-hydrat, reference compound]	6,2 x 10^-4 mol/l	leichtlöslich	–	–	–
COc1ccnc(C[S+]([O-])c2nc3ccc(OC(F)F)cc3[nH]2)c1OC (stereo not shown) [Monohydrat, 5-Difluormethoxy-2-[(3,4-dimethoxy-2-pyridyl)methylsulfinyl]-1H-benzimidazol-Natriumsalz-monohydrat]	0.0013 mol/L	schwer löslich	etwa doppelt so große	nicht hygroskopisch	kein Wasser
